According to BigSolDB 2.1:

O=C(O)CN(CC(=O)O)CP(=O)(O)O
solubility (mole fraction)
Settings | 293.15 K | 298.15 K | 303.15 K | 308.15 K | 313.15 K | 318.15 K | 323.15 K | 328.15 K | 333.15 K | 343.15 K
in acetone | 0.000176 | 0.000227 | 0.000273 | 0.000352 | 0.000445 | 0.000543 | – | – | – | –
in ethanol | – | 3.2e-05 | 7.85e-05 | 0.000102 | 0.000139 | 0.000196 | 0.000359 | – | 0.000733 | 0.00176
in ethyl acetate | 0.000528 | 0.000627 | 0.000791 | 0.000906 | 0.00138 | 0.00153 | 0.00176 | – | 0.00263 | 0.00419
in isopropanol | – | 4.94e-05 | 8.19e-05 | 0.000128 | 0.000248 | 0.000344 | 0.000648 | 0.000898 | 0.00131 | 0.00286
in methanol | – | – | 6.27e-05 | 8.57e-05 | 0.000118 | 0.000168 | 0.000243 | 0.000407 | 0.000588 | –
in n-butanol | 0.000113 | 0.000148 | 0.000186 | 0.000246 | 0.000299 | 0.000387 | 0.000831 | – | 0.00159 | 0.00342
in n-hexanol | 0.000966 | 0.00107 | 0.00116 | 0.00137 | 0.00155 | 0.00197 | 0.00233 | – | 0.00337 | 0.00499
in n-pentanol | 0.000125 | 0.000149 | 0.000186 | 0.00023 | 0.000377 | 0.000583 | 0.00105 | – | 0.00195 | 0.00392
in toluene | 0.00035 | 0.000386 | 0.000427 | 0.000645 | 0.00084 | 0.000991 | 0.00157 | – | 0.00248 | 0.0039
